# Source: US11534457B2, “Use of dextran sulfate” (priority 2017, dated 2022)
# B1: HGF: Hepatocyte growth factor (HGF) recombinant mouse (R&D Systems) (protein, UniProt Q08048 33-495; Q08048 496-728, looked up)
# Hepatocyte growth factor …: QKKRRNTLHEFKKSAKTTLTKEDPLLKIKTKKVNSADECANRCIRNRGFTFTCKAFVFDKSRKRCYWYPFNSMSSGVKKGFGHEFDLYENKDYIRNCIIGKGGSYKGTVSITKSGIKCQPWNSMIPHEHSFLPSSYRGKDLQENYCRNPRGEEGGPWCFTSNPEVRYEVCDIPQCSEVECMTCNGESYRGPMDHTESGKTCQRWDQQTPHRHKFLPERYPDKGFDDNYCRNPDGKPRPWCYTLDPDTPWEYCAIKTCAHSAVNETDVPMETTECIQGQGEGYRGTSNTIWNGIPCQRWDSQYPHKHDITPENFKCKDLRENYCRNPDGAESPWCFTTDPNIRVGYCSQIPKCDVSSGQDCYRGNGKNYMGNLSKTRSGLTCSMWDKNMEDLHRHIFWEPDASKLNKNYCRNPDDDAHGPWCYTGNPLIPWDYCPISRCEGDTTPTIVNLDHPVISCAKTKQLR
# Hepatocyte growth factor beta …: VVNGIPTQTTVGWMVSLKYRNKHICGGSLIKESWVLTARQCFPARNKDLKDYEAWLGIHDVHERGEEKRKQILNISQLVYGPEGSDLVLLKLARPAILDNFVSTIDLPSYGCTIPEKTTCSIYGWGYTGLINADGLLRVAHLYIMGNEKCSQHHQGKVTLNESELCAGAEKIGSGPCEGDYGGPLICEQHKMRMVLGVIVPGRGCAIPNRPGIFVRVAYYAKWIHKVILTYKL
# Experiments:
# [1] = molecular target: T1, protein-protein interaction between oligomeric amyloid-β and PrP^c (Homo sapiens, UniProt P04156); assay type: binding
# [2] = molecular target: T1, protein-protein interaction between oligomeric amyloid-β and PrP^c; conditions: cited from earlier work
# [3] = test system: Experimental Autoimmune Encephalomyelitis (EAE); experiment: Mouse Experimental Autoimmune Encephalomyelitis (EAE) model, clinical score; assay type: in vivo, C57B1.6 mice; conditions: 100 ng/dose i.v. every other day from day 18
Molecule,Competable binding (%) [1] [%],Hill coefficient [1],IC50 [1] [µg/mL],competition for the protein-protein interaction (in words) [1],effective concentrations to compete with the protein-protein interaction (Aimi et al.) [2],mean EAE score vs vehicle [3]
dextran sulphate sodium salt [DSSS],101 ± 2,1.51 ± 0.06,0.62 ± 0.07,competed for the protein-protein interaction between oligomeric amyloid-β and PrP^c in a concentration dependent manner,in the low μg/ml range,
dextran,,,,failed to compete appreciably,,
B1,,,,,,did not result in any significant difference
